Our source for the IC50 and EC50 values is patent publication US20260364080A1, “PYRAZOLO-PYRIMIDINONE COMPOUNDS FOR USE IN METHODS OF INHIBITING WEE1 A KINASE” (Acrivon Therapeutics, Inc., priority 2023, published 2026).

Experiment [1] has as its target T1, recombinant human Wee1A kinase (Homo sapiens, UniProt P30291).
T1 construct: full length Wee1 kinase was expressed by baculovirus in insect cells; purchased Invitrogen PV3817; host or cells: insect cells (baculovirus)
The experiment is described as follows: Wee1A kinase binding assay (LanthaScreen Eu time-resolved FRET). The conditions noted are these: 30 nM tracer 178, 5 nM Wee1A kinase, 2 nM Eu-labeled antibody; 60 minutes at room temperature; read-out: Wee1A kinase Binding IC50. The procedure, abridged:
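Full-length, baculovirus-expressed GST-tagged Wee1A (5 nM) was mixed with 2 nM Eu-anti-GST antibody, 30 nM kinase tracer 178 and compound (1% DMSO). Buffer was 50 mM HEPES pH 7.5, 10 mM MgCl2, 1 mM EGTA, 0.01% Brij-35, incubated 60 min at room temperature. TR-FRET 665/615 nm emission ratios from duplicates were curve-fitted.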
A general note: In TR-FRET formats the signal depends on donor and acceptor labels being close together.

Experiment [2] deals with T2, Myt1 kinase (recombinant PMYT-1) (Homo sapiens, UniProt Q99640).
T2 construct: full length PMYT-1 was expressed by baculovirus in insect cells; purchased Invitrogen A30984; host or cells: insect cells (baculovirus)
T2 sequence (Q99640 1-499): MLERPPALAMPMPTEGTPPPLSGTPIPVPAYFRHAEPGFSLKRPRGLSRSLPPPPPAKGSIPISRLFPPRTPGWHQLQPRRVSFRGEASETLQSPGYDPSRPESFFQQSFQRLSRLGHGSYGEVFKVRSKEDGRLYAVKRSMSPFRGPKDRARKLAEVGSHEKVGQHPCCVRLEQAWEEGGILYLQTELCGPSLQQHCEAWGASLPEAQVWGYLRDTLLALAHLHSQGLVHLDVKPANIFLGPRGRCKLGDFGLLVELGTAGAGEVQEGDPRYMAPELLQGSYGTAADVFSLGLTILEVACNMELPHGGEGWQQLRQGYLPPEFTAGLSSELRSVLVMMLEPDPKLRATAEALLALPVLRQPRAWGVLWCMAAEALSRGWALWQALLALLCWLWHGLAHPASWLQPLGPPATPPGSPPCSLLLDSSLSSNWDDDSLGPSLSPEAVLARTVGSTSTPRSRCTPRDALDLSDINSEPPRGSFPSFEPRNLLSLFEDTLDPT
As to the kind of experiment: Myt1 kinase binding assay (LanthaScreen Eu Kinase Binding Assay). The conditions noted are these: 3 nM tracer 178, 2.5 nM PMYT-1, 1 nM Eu-labeled antibody; read-out: Myt1 kinase Binding IC50. The procedure, abridged: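 Compound binding to Myt1 kinase was assessed using the LanthaScreen Eu Kinase Binding Assay. This europium-based binding format was applied to quantify how strongly each compound bound to the Myt1 enzyme, and the binding affinity was reported for each compound as an IC50 value.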

For experiment [3], the target named is T3, Myt1 kinase (CDK1 Thr14 phosphorylation in DAOY medulloblastoma cells) (Homo sapiens, UniProt Q99640).
T3 construct: pCDK1 Thr14 AlphaLISA read-out
T3 sequence (Q99640 1-499): T2 sequence (Q99640 1-499)
The experiment is described as follows: AlphaLISA assay, Myt1 kinase target engagement (phospho-CDK1 Thr14) in DAOY cells. The experiment is classed as cell-based. To be noted: 4 h treatment, read-out: CDK1 Thr14 Phosphorylation EC50. The procedure, abridged: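 Cells seeded at 10,000 (DAOY) or 20,000 (ACHN) per well, treated 24 h later for 4 h with compound at 7–5000 nM. Lysates analysed by AlphaLISA SureFire Ultra phospho-CDK1 (Thr14) with donor/acceptor beads; EC50 from dose-response curves.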

Experiment [4] has as its target T4, Wee1A kinase (CDK1 Tyr15 phosphorylation in ACHN renal cell carcinoma cells) (Homo sapiens, UniProt P30291).
T4 construct: pCDK1 Tyr15 immunofluorescence read-out
As to the kind of experiment: High-content imaging of pCdk1 Y15, Wee1A kinase target engagement in ACHN cells. To be noted: 4 h treatment, nuclear positivity for pCdk1 Y15 vs DMSO control, read-out: CDK1 Tyr15 Phosphorylation EC50. Type of experiment: cell-based. Put shortly: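 EC50 values come from the per-well fraction of cells with nuclear pCdk1 Y15 staining, normalised to DMSO control, by automated immunofluorescence imaging. Cells were ACHN renal carcinoma, treated 4 h with compound at 7–5,000 nM or 0.3–200 nM.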

The next experiment deals with ACHN cells. The experiment is described as follows: Cell Titer Glo viability assay, ACHN cells. Type of experiment: cell-based. The conditions noted are these: Homo sapiens, 144 h, absolute EC50. Put shortly: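 Cells grown in MEM with 10% FCS were seeded at 500 (A427), 400 (ACHN) or 250 (DAOY) per well and treated the next day with compound at 17 to 10 000 nM. Viability relative to untreated control was read at 144 h by CellTiter-Glo 2.0.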
On the technique in general: ATP-based viability assays read luminescence as a measure of living cells.

The test system of a further experiment is DAOY cells. The experiment is described as follows: Cell Titer Glo viability assay, DAOY cells. The experiment is classed as cell-based. The conditions noted are these: Homo sapiens, 144 h, absolute EC50. The protocol: Each of an ACHN renal cell carcinoma cell line (ATCC) and a DAOY medulloblastoma cell line, and an A427 lung cancer line were cultured in Minimum Essential Medium Eagle supplemented with 10% fetal calf serum (Sigma), 1% Penicillin-Streptomycin and 10 mM HEPES buffer (HyClone). Cell cultures were kept in a humidified incubator at 37 °C and 5% CO2. Cells were routinely tested for Mycoplasma contamination.
ACHN cells, DAOY cells, or A427 cells were seeded at a density of 400, 250, or 500 cells per well respectively, in tissue culture treated 384 well plates (Corning Costar). After overnight incubation, cells were treated with drugs at concentrations ranging from 17 to 10 000 nM. Viability compared to untreated control was assessed at 144 h using Cell Titer Glo assay 2.0 (Promega). […] “NT” means the compounds was not tested in the indicated cells.

T1 sequence (P30291 whole entry): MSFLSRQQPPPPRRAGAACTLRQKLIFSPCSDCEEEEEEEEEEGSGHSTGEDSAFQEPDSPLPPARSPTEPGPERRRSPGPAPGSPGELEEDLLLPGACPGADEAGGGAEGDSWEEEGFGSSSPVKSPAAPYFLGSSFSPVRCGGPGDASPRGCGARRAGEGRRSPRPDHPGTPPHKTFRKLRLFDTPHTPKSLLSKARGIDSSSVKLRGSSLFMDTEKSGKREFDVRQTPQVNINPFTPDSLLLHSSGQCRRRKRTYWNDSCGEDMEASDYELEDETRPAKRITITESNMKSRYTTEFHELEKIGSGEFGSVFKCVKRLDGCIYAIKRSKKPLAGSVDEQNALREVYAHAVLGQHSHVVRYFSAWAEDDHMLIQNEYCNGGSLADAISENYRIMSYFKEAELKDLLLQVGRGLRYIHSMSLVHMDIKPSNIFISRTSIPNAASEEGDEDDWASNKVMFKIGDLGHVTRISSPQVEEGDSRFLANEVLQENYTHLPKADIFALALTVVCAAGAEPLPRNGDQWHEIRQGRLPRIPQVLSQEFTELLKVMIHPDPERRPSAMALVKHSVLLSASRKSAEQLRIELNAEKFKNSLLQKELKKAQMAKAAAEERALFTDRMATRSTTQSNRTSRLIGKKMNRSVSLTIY
T4 sequence (P30291 whole entry): as above

Usually IC50 stands for the concentration needed to halve the response being measured. As usually defined, the EC50 is the concentration that produces a half-maximal response. As for `C=CCn1c(=O)c2cnc(Nc3ccc4c(ccn4C)c3)nc2n1-c1cccc(OC2CCNCC2)n1` [Compound 236, 2-allyl-6-((1-methyl-1H-indol-5-yl)amino)-1-(6-(piperidin-4-yloxy)pyridin-2-yl)-1,2-dihydro-3H-pyrazolo[3,4-d]pyrimidin-3-one], the IC50 is below 10 nM in experiment [1] and 20 to 100 nM in experiment [2]. For the same molecule, the EC50 in experiment [3] is 200 to 500 nM; in experiment [4], below 100 nM; in the experiment on ACHN cells, at most 100 nM; in the experiment on DAOY cells it was at most 100 nM.

Take `C=CCn1c(=O)c2cnc(Nc3ccc4c(cnn4C(C)C)c3)nc2n1-c1cccc(OC2CCN(C)CC2)n1` [Compound 248, 2-allyl-6-(1-isopropyl-1H-indazol-5-ylamino)-1-[6-(1-methyl-4-piperidyloxy)-2-pyridyl]-1,2-dihydro-3H-1,2,5,7-tetraazainden-3-one]: the figures for the IC50 in experiment [1] and in experiment [2] were below 10 nM and below 20 nM, respectively. For the same molecule, the EC50 in experiment [3] is below 200 nM; in experiment [4] it was below 100 nM; in the experiment on ACHN cells, at most 100 nM; with DAOY cells it was at most 100 nM.

For `C=CCn1c(=O)c2cnc(Nc3ccc(F)cc3)nc2n1-c1cccc(OC2CCN(C)CC2)n1` [Compound 207, 6-[(4-fluorophenyl)amino]-1-{6-[(1-methylpiperidin-4-yl)oxy]pyridin-2-yl}-2-(prop-2-en-1-yl)-1H,2H,3H-pyrazolo[3,4-d]pyrimidin-3-one], the IC50 in experiment [1] was below 10 nM; in experiment [2], 20 to 100 nM. The EC50 in experiment [3] was 500 to 1000 nM; in experiment [4], below 100 nM; in the experiment with ACHN cells it was at most 100 nM; in the experiment with DAOY cells, at most 100 nM.

For the molecule `C=CCn1c(=O)c2cnc(Nc3ccc4oc(C)nc4c3)nc2n1-c1cccc(OC2CCN(C)CC2)n1` [Compound 231, 2-allyl-6-(2-methyl-1,3-benzoxazol-5-ylamino)-1-[6-(1-methyl-4-piperidyloxy)-2-pyridyl]-1,2-dihydro-3H-1,2,5,7-tetraazainden-3-one], the IC50 in experiment [1] is below 10 nM; in experiment [2] it was below 20 nM. Moreover, the EC50 in experiment [3] was 200 to 500 nM; in experiment [4], below 100 nM; in the experiment with ACHN cells, at most 100 nM; in the experiment with DAOY cells, at most 100 nM.

`C=CCn1c(=O)c2cnc(Nc3ccc4scnc4c3)nc2n1-c1cccc(OC2CCN(C)CC2)n1` [Compound 209, 2-allyl-6-(benzo[d]thiazol-5-ylamino)-1-(6-((1-methylpiperidin-4-yl)oxy)pyridin-2-yl)-1,2-dihydro-3H-pyrazolo[3,4-d]pyrimidin-3-one]: the IC50 in experiment [1] was below 10 nM; in experiment [2], below 20 nM. Moreover, the EC50 is below 200 nM in experiment [3], below 100 nM in experiment [4], at most 100 nM in the experiment with ACHN cells and at most 100 nM in the experiment on DAOY cells.

Regarding `CN1CCC(Oc2cccc(-n3c4nc(Nc5ccc6c(cnn6C)c5)ncc4c(=O)n3C)n2)CC1` [Compound 121, 2-methyl-6-(1-methyl-1H-indazol-5-ylamino)-1-[6-(1-methyl-4-piperidyloxy)-2-pyridyl]-1,2-dihydro-3H-1,2,5,7-tetraazainden-3-one], the IC50 is below 10 nM in experiment [1] and 20 to 100 nM in experiment [2]. Moreover, the EC50 in experiment [3] was 200 to 500 nM; in experiment [4], below 100 nM; in the experiment on ACHN cells, at most 100 nM; with DAOY cells it was at most 100 nM.

Regarding `C=CCn1c(=O)c2cnc(Nc3ccc4sncc4c3)nc2n1-c1cccc(OC2CCN(C)CC2)n1` [Compound 320, 2-allyl-6-(1,2-benzisothiazol-5-ylamino)-1-[6-(1-methyl-4-piperidyloxy)-2-pyridyl]-1,2-dihydro-3H-1,2,5,7-tetraazainden-3-one], the results for the IC50 in experiment [1] and in experiment [2] were below 10 nM and below 20 nM, respectively. For the same molecule, the EC50 in experiment [3] is 200 to 500 nM; in experiment [4], below 100 nM; with ACHN cells, at most 100 nM; in the experiment on DAOY cells, at most 100 nM.

Consider `C=CCn1c(=O)c2cnc(Nc3ccc4nc(C)oc4c3)nc2n1-c1cccc(OC2CCN(C)CC2)n1` [Compound 311, 2-allyl-6-(2-methyl-1,3-benzoxazol-6-ylamino)-1-[6-(1-methyl-4-piperidyloxy)-2-pyridyl]-1,2-dihydro-3H-1,2,5,7-tetraazainden-3-one], for which the results for the IC50 in experiment [1] and in experiment [2] were below 10 nM and 20 to 100 nM, respectively. The EC50 in experiment [3] was below 200 nM; in experiment [4] it was below 100 nM; with ACHN cells it was at most 100 nM; in the experiment with DAOY cells, at most 100 nM.

For `C=CCn1c(=O)c2cnc(Nc3ccc4c(c3)OCO4)nc2n1-c1cccc(OC2CCN(C)CC2)n1` [Compound 307, 2-allyl-6-(2H-1,3-benzodioxol-5-ylamino)-1-[6-(1-methyl-4-piperidyloxy)-2-pyridyl]-1,2-dihydro-3H-1,2,5,7-tetraazainden-3-one], the figures for the IC50 in experiment [1] and in experiment [2] were below 10 nM and 20 to 100 nM, respectively. Moreover, the EC50 in experiment [3] was 200 to 500 nM; in experiment [4], below 100 nM; in the experiment on ACHN cells, at most 100 nM; in the experiment on DAOY cells, at most 100 nM.

In the case of `C=CCn1c(=O)c2cnc(Nc3ccc4c(cnn4C)c3)nc2n1-c1cccc(OC2CCNCC2)n1` [Compound 106, 2-allyl-6-(1-methyl-1H-indazol-5-ylamino)-1-[6-(4-piperidyloxy)-2-pyridyl]-1,2-dihydro-3H-1,2,5,7-tetraazainden-3-one], the results for the IC50 in experiment [1] and in experiment [2] were below 10 nM and 20 to 100 nM, respectively. Further, the EC50 in experiment [3] was 200 to 500 nM; in experiment [4], below 100 nM; in the experiment with ACHN cells it was at most 100 nM; in the experiment on DAOY cells, 100 to 500 nM.

With `C=CCn1c(=O)c2cnc(Nc3ccc4occc4c3)nc2n1-c1cccc(OC2CCN(C)CC2)n1` [Compound 309, 2-allyl-6-(1-benzofuran-5-ylamino)-1-[6-(1-methyl-4-piperidyloxy)-2-pyridyl]-1,2-dihydro-3H-1,2,5,7-tetraazainden-3-one], the IC50 in experiment [1] is below 10 nM; in experiment [2], below 20 nM. The EC50 in experiment [3] is below 200 nM; in experiment [4] it was below 100 nM; in the experiment on ACHN cells it was at most 100 nM; with DAOY cells, at most 100 nM.

Turning to `C=CCn1c(=O)c2cnc(Nc3ccc4cccnc4c3)nc2n1-c1cccc(OC2CCN(C)CC2)n1` [Compound 335, 2-allyl-1-[6-(1-methyl-4-piperidyloxy)-2-pyridyl]-6-(7-quinolylamino)-1,2-dihydro-3H-1,2,5,7-tetraazainden-3-one], the results for the IC50 in experiment [1] and in experiment [2] were below 10 nM and below 20 nM, respectively. Besides, the EC50 in experiment [3] is 200 to 500 nM; in experiment [4] it was below 100 nM; with ACHN cells, at most 100 nM; in the experiment with DAOY cells it was at most 100 nM.
